Experimental data reported in patent US20140094485A1, “SOLID STATE FORMS OF HIV INHIBITOR” (Gilead Sciences, Inc., priority 2012, published 2014).
Structures can show the parent of a compound that is named as a salt.

Columns and labels:
[1] = Tabletability (tablet tensile strength as a function of upper punch compression pressure); type: physicochemical; conditions: for Tablet Tensile Strength: immediate release formulation, Form A
Text: As used herein, the term “tabletability” refers to the capacity of a powdered material to be transformed into a tablet of specified strength under the effect of compaction pressure. Tabletability is the tensile strength as a function of compression force and describes the effectiveness of the applied pressure in increasing the tensile strength of the tablet.

[2] = Thermal gravimetric analysis (TGA); type: physicochemical; conditions: heating up to 175° C.; FIG. 4
Protocol: The TGA analysis was conducted on a […]. The thermal gravimetric curve was obtained on a sample heated at 10° C. per minute in a open cup under a nitrogen flow.

Cc1nc2ccccc2c(-c2ccc3c4c(ccnc24)CCO3)c1[C@H](OC(C)(C)C)C(=O)O (atropisomer, axis not shown) [hemi-succinate salt of Compound (I), (2S)-2-tert-butoxy-2-(4-(2,3-dihydropyrano[4,3,2-de]quinolin-7-yl)-2-methylquinolin-3-yl)acetic acid]
Tablet Tensile Strength ([1]; Upper Punch Compression Pressure 98 MPa): 2.17 MPa
Tablet Tensile Strength ([1]; Upper Punch Compression Pressure 140 MPa): 2.94 MPa
Tablet Tensile Strength ([1]; Upper Punch Compression Pressure 197 MPa): 3.18 MPa
Tablet Tensile Strength ([1]; Upper Punch Compression Pressure 253 MPa): 3.41 MPa
tabletability ([1]; result in words, FIG. 5): improved tabletability
weight loss during heating [2]: minimal weight loss
